# In patent publication US20090004302A1, “Methods and Therapeutic Compositions Comprising Plant Extracts for the Treatment of Cancer” (priority 2004, published 2009):
# “And” between values parts separate entries of the source, which are not always exact repeats. Identical values can stand only once.
# What was measured:
# [1] = test system: LLC1 cells clone M27 lung tumour metastases; assay: Lewis lung carcinoma (LLC) model of tumour metastasis; type: in vivo, C57BL/6 mice; conditions: for Mean (SD) tumours/animal / % reduction compared to control (lung tumour metastases) / Total tumour burden (per group): Day 14
# Experimental: The Lewis lung carcinoma model in C57BL/6 mice was used for this study. Lewis lung carcinoma is an aggressive, highly metastatic cell line. LLC1 cells clone M27 (3×10^5 cells, screened for mycoplasma) were injected on Day 0 into the tail vein of each mouse. The mice were divided into 7 groups and received the treatments outlined below. Oral administration of plant extracts was initiated 9 days prior to injection of LLC cells (i.e. on day-9) and continued for […] along with sub-optimal doses of cisplatin (see below). Group 1: […] Group 2: […] Group 3: […] Group 4: Therapeutic combination 1 (TC1) was administered to this group. […] Group 5: Therapeutic combination 2 (TC2) was administered to this group. […] Group 6: Therapeutic combination 3 (TC3) was administered to this group. […] Group 7: Therapeutic combination 4 (TC4) was administered to this group. […] At the end of the experiment (Day 14), the animals were humanely sacrificed, the lungs resected and fixed by direct immersion for approximately 24 hrs in Bouin's fixing media. Metastatic colonies on each lung surface of each mouse were counted by direct observation under a dissecting microscope in a blinded manner by three different investigators.
# [2] = test system: B16F10 melanoma subcutaneous tumour; assay: B16F10 melanoma model of tumour growth; type: in vivo, C57BL/6 mice; conditions: Day 14
# Experimental: The B16F10 melanoma model in C57BL/6 mice was used for this study. B16F10 cells (1×10^6 cells, screened for mycoplasma) were injected subcuteanously on Day 0 on the right flank of each mouse. The mice were divided into 9 groups and received the treatments outlined below. Plant extracts A and B (see Example VI) were used in this study.
# Oral administration of plant extracts was initiated 7 days prior to injection of the B16F10 cells (i.e. on day-7) and continued for […] with or without sub-optimal doses of doxorubicin (see below).
# Group 1: The vehicle used for administration of the plant extracts was used as a negative control for the experiment. Group 2: Doxorubicin (2.5 mg/kg), a standard positive control in the B16F10 melanoma model at optimal dosage, was injected intraperitoneally on days 5, 9 and 13. Group 3: Doxorubicin (1 mg/kg), a sub-optimal dose in this model, was injected intraperitoneally on days 5, 9 and 13. Group 4: Therapeutic plant extract A (PA1) was administered by gavage (200 mg/kg) from days-7 to 14. Group 5: Therapeutic plant extract B (PB1) was administered by gavage (200 mg/kg) from days-7 to 14. Group 6: Therapeutic combination 5 (TC5) was administered to this group. TC5 comprised plant extract A and doxorubicin (1 mg/kg). Plant extract A was administered by gavage (200 mg/kg) from days-7 to 14 and doxorubicin was injected intraperitoneally on days 5, 9 and 13. Group 7: Therapeutic combination 6 (TC6) was administered to this group. TC6 comprised plant extract B and doxorubicin (1 mg/kg). Plant extract B was administered by gavage (200 mg/kg) from days-7 to 14 and doxorubicin was injected intraperitoneally on days 5, 9 and 13. Group 8: Therapeutic combination 7 (TC7) was administered to this group. TC7 comprised plant extract A, plant extract B and doxorubicin (1 mg/kg). […]
# The subcutaneous tumour was measured on each animal with an electronic calliper starting on day 5 and repeated on days 8, 11 and 14 and the volume of tumour was calculated according to formula: […]. […]
SMILES,"Mean (SD) tumours/animal ([1]; cisplatin 2 mg/kg i.p. days 1, 4, 7, 10, 13)",% reduction compared to control (lung tumour metastases) ([1]; cisplatin 2 mg/kg i.p.),Total tumour burden (per group) ([1]; cisplatin 2 mg/kg i.p.),body weight of animals ([1]; cisplatin 5 mg/kg dose),"Mean (SD) tumours/animal ([1]; cisplatin 5 mg/kg i.p. days 1, 4, 7, 10, 13)",% reduction compared to control (lung tumour metastases) ([1]; cisplatin 5 mg/kg i.p.),Total tumour burden (per group) ([1]; cisplatin 5 mg/kg i.p.),"Volume (mm^3) of tumour ([2]; doxorubicin 1 mg/kg i.p. days 5, 9, 13)",% growth of tumour ([2]; doxorubicin 1 mg/kg i.p.),Diameter (mm) of tumour ([2]; doxorubicin 1 mg/kg i.p.)
N.N.[Cl][Pt][Cl] [Cisplatin],24.70,27% and 26.7%,346,sharp decrease,1.46,96% and 95.6%,21,,,
COc1cccc2c1C(=O)c1c(O)c3c(c(O)c1C2=O)C[C@@](O)(C(=O)CO)C[C@@H]3O[C@H]1C[C@H](N)[C@H](O)[C@H](C)O1 [Doxorubicin],,,,,,,,2682 ± 220 mm^3,247 ± 30%,21.4 ± 1.1 mm
